Tests used:
JAK2 = biological target: T1, JAK2 (Homo sapiens, UniProt O60674); assay: Jak Biochemical HTRF Assay (JAK2); conditions: recombinant purified GST-tagged catalytic domain, [ATP] 8.5 μM, values given as range classes
T1 construct: recombinant purified GST-tagged catalytic domain for each enzyme; purchased Invitrogen M4290
Method in brief: (§1)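 GST-tagged recombinant catalytic domain and biotinylated peptide substrate were preincubated with compound for 30 min at room temperature in kinase buffer with 2 mM DTT and 0.05% BSA. ATP then started a 120 min reaction. Phosphopeptide was detected by HTRF (Eu-pY20/streptavidin-Dylight 650, 665/615 nm ratio), and IC50 came from a 4-parameter fit of percent inhibition.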

JAK3 = biological target: T2, JAK3 (Homo sapiens, UniProt P52333); assay: Jak Biochemical HTRF Assay (JAK3); conditions: recombinant purified GST-tagged catalytic domain, [ATP] 2.9 μM, values given as range classes
T2 construct: recombinant purified GST-tagged catalytic domain for each enzyme; purchased Invitrogen M4290
Method in brief: as §1

T1 sequence (O60674 849-1124 limits assumed): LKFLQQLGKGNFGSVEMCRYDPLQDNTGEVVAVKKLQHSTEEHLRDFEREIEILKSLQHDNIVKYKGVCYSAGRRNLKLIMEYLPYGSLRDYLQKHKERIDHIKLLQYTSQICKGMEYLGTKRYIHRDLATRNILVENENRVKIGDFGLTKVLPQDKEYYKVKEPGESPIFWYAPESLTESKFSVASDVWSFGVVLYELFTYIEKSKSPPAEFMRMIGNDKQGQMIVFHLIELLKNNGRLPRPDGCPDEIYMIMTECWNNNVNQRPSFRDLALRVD
T2 sequence (P52333 822-1111 limits assumed): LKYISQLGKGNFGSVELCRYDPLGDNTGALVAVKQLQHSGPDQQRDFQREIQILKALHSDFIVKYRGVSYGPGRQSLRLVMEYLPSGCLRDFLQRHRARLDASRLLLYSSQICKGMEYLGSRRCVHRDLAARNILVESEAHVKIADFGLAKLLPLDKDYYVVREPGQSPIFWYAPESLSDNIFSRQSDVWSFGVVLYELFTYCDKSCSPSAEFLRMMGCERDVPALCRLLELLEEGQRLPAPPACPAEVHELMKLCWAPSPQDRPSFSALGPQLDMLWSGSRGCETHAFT

For `C[C@@H](Nc1cncc(-c2c[nH]c3ncc(C(N)=O)cc23)c1)C(=O)NCC(F)(F)F` [Example 1-46, 3-[5-({(1R)-1-methyl-2-oxo-2-[(2,2,2-trifluoroethyl)amino]ethyl}amino)pyridin-3-yl]-1H-pyrrolo[2,3-b]pyridine-5-carboxamide], the IC50 (JAK2) was 0.01 to 0.5 µM and the IC50 (JAK3) was at most 0.01 µM.
Work on `CC(C)(Nc1cnnc(-c2c[nH]c3ncc(F)cc23)n1)C(=O)NCC(F)(F)F` [Example 1-6, N~2~-[3-(5-fluoro-1H-pyrrolo[2,3-b]pyridin-3-yl)-1,2,4-triazin-5-yl]-2-methyl-N-(2,2,2-trifluoroethyl)alaninamide] yielded an IC50 (JAK2) of 0.01 to 0.5 µM and an IC50 (JAK3) of at most 0.01 µM.
`Fc1cnc2[nH]cc(-c3nncc(N4CCCC4c4nccs4)n3)c2c1` (centres unmarked) [Example 1-11, 5-fluoro-3-{5-[2-(1,3-thiazol-2-yl)pyrrolidin-1-yl]-1,2,4-triazin-3-yl}-1H-pyrrolo[2,3-b]pyridine] showed an IC50 (JAK2) of 0.01 to 0.5 µM and an IC50 (JAK3) of 0.01 to 0.5 µM.
`COCc1cnc2[nH]cc(-c3cncc(N[C@@H](C(=O)NCC(F)(F)F)C(C)C)c3)c2c1` [Example 9-9, N~2~-{5-[5-(methoxymethyl)-1H-pyrrolo[2,3-b]pyridin-3-yl]pyridin-3-yl}-N-(2,2,2-trifluoroethyl)-D-valinamide] showed an IC50 (JAK2) of 0.01 to 0.5 µM and an IC50 (JAK3) of at most 0.01 µM.
Molecule `CCCC(=O)NCc1cnc2[nH]cc(-c3cncc(N[C@H](C(=O)NCC(F)(F)F)C(C)C)c3)c2c1` [Example 10-9, N~2~-(5-{5-[(butanoylamino)methyl]-1H-pyrrolo[2,3-b]pyridin-3-yl}pyridin-3-yl)-N-(2,2,2-trifluoroethyl)valinamide] has an IC50 (JAK2) of over 0.5 µM and an IC50 (JAK3) of 0.01 to 0.5 µM.
`CC(C)C(Nc1cncc(-c2c[nH]c3ncc(OC4CCN(C)CC4)cc23)c1)C(=O)NCC(F)(F)F` (centres unmarked) [Example 2-16, N~2~-(5-{5-[(1-methylpiperidin-4-yl)oxy]-1H-pyrrolo[2,3-b]pridin-3-yl}pyridin-3-yl)-N-(2,2,2-trifluoroethyl)valinamide] was tested, and the IC50 (JAK2) was 0.01 to 0.5 µM and the IC50 (JAK3) was at most 0.01 µM.
For `COc1cnc2[nH]cc(-c3cncc(N[C@@H](C(=O)NCC(F)(F)F)C(C)(C)O)c3)c2c1` [Example 1-50, 3-hydroxy-N~2~-[5-(5-methoxy-1H-pyrrolo[2,3-b]pyridin-3-yl)pyridin-3-yl]-N-(2,2,2-trifluoroethyl)-D-valinamide], the IC50 (JAK2) was 0.01 to 0.5 µM and the IC50 (JAK3) was at most 0.01 µM.
With `CC(C)[C@H](Nc1cncc(-c2c[nH]c3ncc(OCc4cccnc4)cc23)c1)C(=O)NCC(F)(F)F` [Example 2-11, N~2~-{5-[5-(pyridin-3-ylmethoxy)-1H-pyrrolo[2,3-b]pyridin-3-yl]pyridin-3-yl}-N-(2,2,2-trifluoroethyl)valinamide] the IC50 (JAK2) was 0.01 to 0.5 µM and the IC50 (JAK3) was at most 0.01 µM.
`CC(C)[C@H](Nc1cncc(-c2c[nH]c3ncc(OCCN4CCCC4=O)cc23)c1)C(=O)NCC(F)(F)F` [Example 2-10, N~2~-(5-{5-[2-(2-oxopyrrolidin-1-yl)ethoxy]-1H-pyrrolo[2,3-b]pyridin-3-yl}pyridin-3-yl)-N-(2,2,2-trifluoroethyl)valinamide] was tested, and the IC50 (JAK2) was 0.01 to 0.5 µM and the IC50 (JAK3) was at most 0.01 µM.
For `CC1c2ncc(C(F)(F)F)n2CCN1c1cnnc(-c2c[nH]c3ncc(Cl)cc23)n1` (centres unmarked) [Example 1-4, 7-[3-(5-chloro-1H-pyrrolo[2,3-b]pyridin-3-yl)-1,2,4-triazin-5-yl]-8-methyl-3-(trifluoromethyl)-5,6,7,8-tetrahydroimidazo[1,2-a]pyrazine], the IC50 (JAK2) was 0.01 to 0.5 µM and the IC50 (JAK3) was at most 0.01 µM.
Molecule `CC(C)[C@@H](Nc1cnnc(-c2c[nH]c3ncc(F)cc23)n1)C(=O)NCC(F)(F)F` [Example 1-16, N~2~-[3-(5-fluoro-1H-pyrrolo[2,3-b]pyridin-3-yl)-1,2,4-triazin-5-yl]-N-(2,2,2-trifluoroethyl)-D-valinamide] has an IC50 (JAK2) of 0.01 to 0.5 µM and an IC50 (JAK3) of at most 0.01 µM.
Work on `O=C(NCC(F)(F)F)[C@H]1CCCC[C@H]1Nc1cncc(-c2c[nH]c3ncc(F)cc23)c1` [Example 1-37, (1S,2R)-2-{[5-(5-fluoro-1H-pyrrolo[2,3-b]pyridin-3-yl)pyridin-3-yl]amino}-N-(2,2,2-trifluoroethyl)cyclohexane-carboxamide] yielded an IC50 (JAK2) of 0.01 to 0.5 µM and an IC50 (JAK3) of at most 0.01 µM.
Work on `N#Cc1cnc2[nH]cc(-c3cncc(N[C@@H]4CCCC[C@@H]4C(=O)NCC(F)(F)F)c3)c2c1` [Example 1-38, (1S,2R)-2-{[5-(5-cyano-1H-pyrrolo[2,3-b]pyridin-3-yl)pyridin-3-yl]amino}-N-(2,2,2-trifluoroethyl)cyclohexane-carboxamide] yielded an IC50 (JAK2) of 0.01 to 0.5 µM and an IC50 (JAK3) of at most 0.01 µM.
Molecule `CC(C)CNC(=O)c1cnc2[nH]cc(-c3cncc(N[C@@H](C(=O)NCC(F)(F)F)C(C)C)c3)c2c1` [Example 3-7, N-(2-methylpropyl)-3-[5-({(1R)-2-methyl-1-[(2,2,2-trifluoroethyl)carbamoyl]propyl}amino)pyridin-3-yl]-1H-pyrrolo[2,3-b]pyridine-5-carboxamide] has an IC50 (JAK2) of 0.01 to 0.5 µM and an IC50 (JAK3) of at most 0.01 µM.
Molecule `Clc1cnc2[nH]cc(-c3nncc(N4CCCC4c4nccs4)n3)c2c1` (centres unmarked) [Example 1-5, 5-chloro-3-{5-[2-(1,3-thiazol-2-yl)pyrrolidin-1-yl]-1,2,4-triazin-3-yl}-1H-pyrrolo[2,3-b]pyridine] has an IC50 (JAK2) of 0.01 to 0.5 µM and an IC50 (JAK3) of 0.01 to 0.5 µM.
In the case of `CC(C)[C@@H](Nc1cncc(-c2c[nH]c3ncc(CN4CCCC4)cc23)c1)C(=O)NCC(F)(F)F` [Example 9-7, N~2~-{5-[5-(pyrrolidin-1-ylmethyl)-1H-pyrrolo[2,3-b]pyridin-3-yl]pyridin-3-yl}-N-(2,2,2-trifluoroethyl)-D-valinamide], the IC50 (JAK2) is reported as 0.01 to 0.5 µM and the IC50 (JAK3) is reported as 0.01 to 0.5 µM.
`CC(C)[C@@H](Nc1cncc(-c2c[nH]c3ncc(COCCN4CCOCC4)cc23)c1)C(=O)NCC(F)(F)F` [Example 9-4, N~2~-(5-{5-[(2-morpholin-4-ylethoxy)methyl]-1H-pyrrolo[2,3-b]pyridin-3-yl}pyridin-3-yl)-N-(2,2,2-trifluoroethyl)-D-valinamide] gave an IC50 (JAK2) of 0.01 to 0.5 µM and an IC50 (JAK3) of at most 0.01 µM.
Molecule `CC(C)[C@H](Nc1cncc(-c2c[nH]c3ncc(NC(=O)CO)cc23)c1)C(=O)NCC(F)(F)F` [Example 5-7, N~2~-(5-{5-[(hydroxyacetyl)amino]-1H-pyrrolo[2,3-b]pyridin-3-yl}pyridin-3-yl)-N-(2,2,2-trifluoroethyl)valinamide] has an IC50 (JAK2) of 0.01 to 0.5 µM and an IC50 (JAK3) of at most 0.01 µM.
With `CC(C)C(Nc1cncc(-c2c[nH]c3ncc(C(N)=O)cc23)c1)C(=O)NCC(F)(F)F` (centres unmarked) [Example 1-42, 3-[5-({2-methyl-1-[(2,2,2-trifluoroethyl)carbamoyl]propyl}amino)pridin-3-yl]-1H-pyrrolo[2,3-b]pyridine-5-carboxamide] the IC50 (JAK2) was 0.01 to 0.5 µM and the IC50 (JAK3) was at most 0.01 µM.
For `CC(C)[C@H](Nc1cncc(-c2c[nH]c3ncc(N)cc23)c1)C(=O)NCC(F)(F)F` [Example 5-1, N^2-[5-(5-amino-1H-pyrrolo[2,3-b]pyridin-3-yl)pyridin-3-yl]-N-(2,2,2-trifluoroethyl)valinamide], the IC50 (JAK2) was 0.01 to 0.5 µM and the IC50 (JAK3) was 0.01 to 0.5 µM.
`COCC(C)NC(=O)c1cnc2[nH]cc(-c3cncc(N[C@@H](C(=O)NCC(F)(F)F)C(C)C)c3)c2c1` (stereo partly drawn) [Example 3-3, N-(2-methoxy-1-methylethyl)-3-[5-({(1R)-2-methyl-1-[(2,2,2-trifluoroethyl)carbamoyl]propyl}amino)pyridin-3-yl]-1H-pyrrolo[2,3-b]pyridine-5-carboxamide] gave an IC50 (JAK2) of 0.01 to 0.5 µM and an IC50 (JAK3) of at most 0.01 µM.
For `CC(C)[C@@H](Nc1cncc(-c2c[nH]c3ncc(C(=O)N(C)C(C)c4ccn[nH]4)cc23)c1)C(=O)NCC(F)(F)F` (stereo partly drawn) [Example 3-11, N-methyl-3-[5-({(1R)-2-methyl-1-[(2,2,2-trifluoroethyl)carbamoyl]propyl}amino)pyridin-3-yl]-N-[1-(1H-pyrazol-5-yl)ethyl]-1H-pyrrolo[23-b]pyridine-5-carboxamide], the IC50 (JAK2) was over 0.5 µM and the IC50 (JAK3) was 0.01 to 0.5 µM.
In the case of `COCCOc1cnc2[nH]cc(-c3cncc(NC(C(=O)NCC(F)(F)F)C(C)C)c3)c2c1` (centres unmarked) [Example 2-2], the IC50 (JAK2) is reported as 0.01 to 0.5 µM and the IC50 (JAK3) is reported as at most 0.01 µM.
In the case of `O=C(NCC(F)(F)F)[C@H]1CCCC[C@H]1Nc1cncc(-c2c[nH]c3ncc(Cl)cc23)c1` [Example 1-33, (1S,2R)-2-{[5-(5-chloro-1H-pyrrolo[2,3-b]pyridin-3-yl)pyridin-3-yl]amino}-N-(2,2,2-trifluoroethyl)cyclohexane-carboxamide], the IC50 (JAK2) is reported as 0.01 to 0.5 µM and the IC50 (JAK3) is reported as at most 0.01 µM.
Molecule `C=CCOCc1cnc2[nH]cc(-c3cncc(N[C@@H](C(=O)NCC(F)(F)F)C(C)C)c3)c2c1` [Example 9-5, N~2~-(5-{5-[(prop-2-en-1-yloxy)methyl]-1H-pyrrolo[2,3-b]pyridin-3-yl}pyridin-3-yl)-N-(2,2,2-trifluoroethyl)-D-valinamide] has an IC50 (JAK2) of 0.01 to 0.5 µM and an IC50 (JAK3) of at most 0.01 µM.
`CC(C)[C@@H](Nc1cncc(-c2c[nH]c3ncc(C(=O)NCC4(O)CC4)cc23)c1)C(=O)NCC(F)(F)F` [Example 3-14, N-[(1-hydroxycyclopropyl)methyl]-3-[5-({(1R)-2-methyl-1-[(2,2,2-trifluoroethyl)carbamoyl]propyl}amino)pyridin-3-yl]-1H-pyrrolo[2,3-b]pyridine-5-carboxamide] was tested, and the IC50 (JAK2) was at most 0.01 µM and the IC50 (JAK3) was at most 0.01 µM.
With `C[C@@H](Nc1cncc(-c2c[nH]c3ncc(Cl)cc23)c1)C(=O)NCC(F)(F)F` [Example 1-29, N~2~-[5-(5-chloro-1H-pyrrolo[2,3-b]pyridin-3-yl)pyridin-3-yl]-N-(2,2,2-trifluoroethyl)-D-alaninamide] the IC50 (JAK2) was 0.01 to 0.5 µM and the IC50 (JAK3) was at most 0.01 µM.
Work on `CC(C)[C@H](Nc1cncc(-c2c[nH]c3ncc(CNC(=O)C4CC4)cc23)c1)C(=O)NCC(F)(F)F` [Example 10-6, N~2~-[5-(5-{[(cyclopropylcarbonyl)amino]methyl}-1H-pyrrolo[2,3-b]pyridin-3-yl)pyridin-3-yl]-N-(2,2,2-trifluoroethyl)valinamide] yielded an IC50 (JAK2) of 0.01 to 0.5 µM and an IC50 (JAK3) of at most 0.01 µM.

From patent publication US9096598B2 (Merck Sharp & Dohme Corp., priority 2011, dated 2015)
